Assay results reported in patent publication US20250195403A1, “SKIN WHITENING, ANTI-BACTERIAL OR ANTI-ATOPIC COMPOSITION, CONTAINING SYZYGIUM FORMOSUM EXTRACT AS ACTIVE INGREDIENT” (CARBOEXPERT INC., priority 2018, published 2025).

Columns and labels:
B16F10 cell line = test: Melanin production inhibitory activity in B16F10 cells; type: cell-based, mice; conditions: extract 0.1 mg/ml, 72 hours, 400 nm
Experimental: The cell line used in the test was B16F10 cell line (Korean Cell Line Bank, Korea), which is a malignant melanoma cell in mice. The cryopreserved cell line was cultured in a culture dish, and after cell line stabilization was confirmed while repeating the subculture twice to three times in the cycle of 2 to 3 days after the first cell culture, cells were cultured in a 48-well plate by the number of cells of 1×10^5/well. Then, the test was prepared by incubating for 24 hours. […] 300 μl of the medium containing each of the sample, the negative control group, and the positive control group was added to a 48-well plate on which cell had been cultured in advance, and cell were cultured for 72 hours at 37° C. under 5% CO2 while the medium was exchanged every day. Thereafter, the medium was removed by washing each well with PBS, and then the cells were treated with 200 μl of 1N NaOH. Thereafter, absorbance was measured at 400 nm using a SpectraMax M2 (Molecular devices, USA). The degree of inhibition on the production of melanin was calculated by comparing the absorbance of the test group with that of the control group treated with the negative control group by using Equation 2. [formula]

tyrosinase [1] = test: Tyrosinase inhibitory activity using L-DOPA; type: biochemical; conditions: substrate L-DOPA, 25° C., 5 minutes, 475 nm
Experimental: Tyrosinase inhibitory activity was confirmed using L-DOPA.
• Tyrosinase solution: Tyrosinase was dissolved in 0.1M PBS (Phosphate buffered saline) buffer to prepare a solution having a concentration of 110 U/ml. • Substrate: L-DOPA was dissolved in 0.1M PBS buffer to be in the concentration of 5 mM. • Sample Usage: Diluted with distilled water to a corresponding concentration and used. • Negative control: Distilled water was added instead of the sample.
Syzygium formosum extract (Example 1, Example 2, and Comparative Examples 1 to 7), 30 μl of negative control (control), 30 μl of positive control (positive control), 70 μl of 0.1M PBS buffer, and 30 μl of substrate were added. Then, 20 μl of tyrosinase was added thereto, and the reaction was performed at a temperature of 25° C. for 5 minutes. After completion of the reaction, absorbance was measured at 475 nm. The tyrosinase inhibitory activity (%) was calculated using Equation 1 by comparing the absorbance of the test group with that of the control group.

tyrosinase [2] = test: Tyrosinase inhibitory activity using L-tyrosine; type: biochemical; conditions: substrate L-tyrosine, sample 0.5 mg/ml, 25° C., 15 minutes, 475 nm
Experimental: The inhibitory activity of tyrosinase, which is an enzyme that plays an important role in the melanin synthesis process, was confirmed using the Syzygium formosum extract.
500 μl of 1 mM L-tyrosine, 900 μl of 0.1 M phosphate buffer (pH 6.8), and 100 μl of 0.5 mg/ml Syzygium formosum extract dissolved in 10% DMSO (Example 1, Example 2, and Comparative Examples 1 to 7) were mixed, and then 100 μl of tyrosinase (53.7 U/ml) was added thereto and reacted at a temperature of 25° C. for 15 minutes. At this time, DMSO was used as a control group, and 0.5 mg/ml arbutin was used as a positive control group.
The absorbance of the reaction solution was measured at 475 nm for 15 minutes at time intervals of 30 seconds, and then, the tyrosinase inhibitory activity (%) was calculated using Equation 1.

OC[C@H]1O[C@@H](Oc2ccc(O)cc2)[C@H](O)[C@@H](O)[C@@H]1O [Arbutin, arbutin]
Inhibitory activity (%) (B16F10 cell line): 21.1% | Inhibitory activity (%) (tyrosinase [1]): 18.6% | Inhibitory activity (%) (tyrosinase [2]): 49.1%
